Experimental data reported in ChEMBL document CHEMBL5465560, “Selectivity Literature for EUbOPEN Chemogenomic Library” (2024).
One block for each compound: values may come before it.

What was measured:
[1] = target: Mast/stem cell growth factor receptor Kit (Homo sapiens, UniProt P10721); details: at 10 µM
[2] = target: TRAF2 and NCK-interacting protein kinase (Homo sapiens) (UniProt Q9UKE5); assay: Selectivity interaction (Ambit KINOMEscan and KiNATiv profiling in Jurkat cells) EUB0000090b TNIK; type: cell-based; details: at 1 µM
[3] = target: Serine/threonine-protein kinase 16 (Homo sapiens, UniProt O75716); assay: Selectivity interaction (KinomeScan (DiscoverX)) EUB0000618a STK16; details: at 10 µM
[4] = target: Phosphatidylinositol 4-kinase beta (Homo sapiens, UniProt Q9UBF8); assay: Selectivity interaction (ActivX KiNativ screen (ex vivo kinase selectivity in human PBMCs)) EUB0001619a PI4KB; type: cell-based; details: PBMC, at 1 µM
[5] = target: Casein kinase I isoform gamma-2 (Homo sapiens) (UniProt P78368); assay: Selectivity interaction (KinomeScan (DiscoverX)) EUB0001619a CSNK1G2; details: at 1 µM
[6] = target: T1, Cytoplasmic tyrosine-protein kinase BMX (Homo sapiens) (UniProt P51813); assay: Selectivity interaction (KinomeScan (DiscoverX)) EUB0001619a BMX; details: at 1 µM
T1 sequence (whole entry): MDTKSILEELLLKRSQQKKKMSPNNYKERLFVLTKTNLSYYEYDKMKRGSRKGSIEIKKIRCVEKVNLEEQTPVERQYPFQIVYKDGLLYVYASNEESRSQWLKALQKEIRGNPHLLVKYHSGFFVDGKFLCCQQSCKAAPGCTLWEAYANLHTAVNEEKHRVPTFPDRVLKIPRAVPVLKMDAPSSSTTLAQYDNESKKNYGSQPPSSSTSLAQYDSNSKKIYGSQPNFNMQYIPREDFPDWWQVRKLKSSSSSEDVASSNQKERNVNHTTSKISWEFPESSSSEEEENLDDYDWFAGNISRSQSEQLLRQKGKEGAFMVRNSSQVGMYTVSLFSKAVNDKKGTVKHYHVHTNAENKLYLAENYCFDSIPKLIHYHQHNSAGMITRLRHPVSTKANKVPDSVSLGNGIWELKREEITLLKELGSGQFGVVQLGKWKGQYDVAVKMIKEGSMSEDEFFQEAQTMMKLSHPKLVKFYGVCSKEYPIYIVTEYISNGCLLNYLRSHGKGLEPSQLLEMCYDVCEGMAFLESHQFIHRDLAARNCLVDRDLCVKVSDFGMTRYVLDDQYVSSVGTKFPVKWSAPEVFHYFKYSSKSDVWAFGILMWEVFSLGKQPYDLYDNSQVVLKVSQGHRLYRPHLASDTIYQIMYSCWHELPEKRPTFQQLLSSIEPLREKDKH

[7] = target: T2, Mitogen-activated protein kinase 13 (Homo sapiens) (UniProt O15264); assay: Selectivity interaction (KinomeScan (DiscoverX)) EUB0000045b MAPK13
T2 sequence (whole entry): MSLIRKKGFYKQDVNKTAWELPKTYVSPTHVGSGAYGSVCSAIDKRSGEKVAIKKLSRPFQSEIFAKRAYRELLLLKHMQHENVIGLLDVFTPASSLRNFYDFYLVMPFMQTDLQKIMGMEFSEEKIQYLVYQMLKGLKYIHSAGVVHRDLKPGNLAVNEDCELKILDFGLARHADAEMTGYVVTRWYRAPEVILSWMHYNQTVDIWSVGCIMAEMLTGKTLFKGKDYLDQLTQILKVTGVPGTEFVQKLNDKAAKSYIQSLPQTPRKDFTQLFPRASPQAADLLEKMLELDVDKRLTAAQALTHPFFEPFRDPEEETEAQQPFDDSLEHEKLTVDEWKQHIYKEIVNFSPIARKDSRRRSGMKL

[8] = target: Serine/threonine-protein kinase SBK1 (Homo sapiens) (UniProt Q52WX2); assay: Selectivity interaction (KinomeScan (DiscoverX)) EUB0000595a SBK1; details: at 10 µM
[9] = target: Mitogen-activated protein kinase 3 (Homo sapiens, UniProt P27361); assay: Selectivity interaction (Upstate Kinase Profiler service (Millipore)) EUB0000056c MAPK3; details: at 1 µM
[10] = target: T3, Dual specificity mitogen-activated protein kinase kinase 5 (Homo sapiens) (UniProt Q13163); assay: Selectivity interaction (Kinase panel (KiNativ target engagement assay in Jurkat cells)) EUB0001635a MAP2K5; type: cell-based; details: Selectivity number of off-targets 0.0, Selectivity number of targets 233.0, Source Knowledge https://www.sciencedirect.com/science/article/pii/S2451945619300674?via%3Dihub, at 1 µM
T3 sequence (whole entry): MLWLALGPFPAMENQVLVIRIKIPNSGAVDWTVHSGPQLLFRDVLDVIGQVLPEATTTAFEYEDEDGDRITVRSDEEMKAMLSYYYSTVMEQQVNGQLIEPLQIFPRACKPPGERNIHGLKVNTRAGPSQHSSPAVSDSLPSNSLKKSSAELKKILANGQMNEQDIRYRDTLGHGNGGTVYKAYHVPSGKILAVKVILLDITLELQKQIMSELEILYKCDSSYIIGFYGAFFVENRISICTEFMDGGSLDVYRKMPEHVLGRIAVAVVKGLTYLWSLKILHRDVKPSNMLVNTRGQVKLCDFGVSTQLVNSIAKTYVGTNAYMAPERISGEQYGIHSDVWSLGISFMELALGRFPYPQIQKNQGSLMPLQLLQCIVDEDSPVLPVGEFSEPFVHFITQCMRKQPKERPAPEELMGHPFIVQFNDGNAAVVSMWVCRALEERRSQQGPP

[11] = target: Serine/threonine-protein kinase 38 (Homo sapiens) (UniProt Q15208); assay: Selectivity interaction (ActivX KiNativ screen (kinase selectivity in THP-1 cell lysates)) EUB0000639a STK38; type: subcellular; details: lysate, at 0.04 µM
[12] = target: Dual specificity mitogen-activated protein kinase kinase 1 (Homo sapiens, UniProt Q02750); assay: Selectivity interaction (ActivX KiNativ screen (kinase selectivity in THP-1 cell lysates)) EUB0000639a MAP2K1; type: subcellular; details: lysate, at 1 µM
[13] = target: BMP-2-inducible protein kinase (Homo sapiens) (UniProt Q9NSY1); assay: Selectivity interaction (KinomeScan (DiscoverX)) EUB0000229b BMP2K; details: at 10 µM
Sequence of BMP-2-inducible protein kinase (Homo sapiens) (Q9NSY1 whole entry, looked up): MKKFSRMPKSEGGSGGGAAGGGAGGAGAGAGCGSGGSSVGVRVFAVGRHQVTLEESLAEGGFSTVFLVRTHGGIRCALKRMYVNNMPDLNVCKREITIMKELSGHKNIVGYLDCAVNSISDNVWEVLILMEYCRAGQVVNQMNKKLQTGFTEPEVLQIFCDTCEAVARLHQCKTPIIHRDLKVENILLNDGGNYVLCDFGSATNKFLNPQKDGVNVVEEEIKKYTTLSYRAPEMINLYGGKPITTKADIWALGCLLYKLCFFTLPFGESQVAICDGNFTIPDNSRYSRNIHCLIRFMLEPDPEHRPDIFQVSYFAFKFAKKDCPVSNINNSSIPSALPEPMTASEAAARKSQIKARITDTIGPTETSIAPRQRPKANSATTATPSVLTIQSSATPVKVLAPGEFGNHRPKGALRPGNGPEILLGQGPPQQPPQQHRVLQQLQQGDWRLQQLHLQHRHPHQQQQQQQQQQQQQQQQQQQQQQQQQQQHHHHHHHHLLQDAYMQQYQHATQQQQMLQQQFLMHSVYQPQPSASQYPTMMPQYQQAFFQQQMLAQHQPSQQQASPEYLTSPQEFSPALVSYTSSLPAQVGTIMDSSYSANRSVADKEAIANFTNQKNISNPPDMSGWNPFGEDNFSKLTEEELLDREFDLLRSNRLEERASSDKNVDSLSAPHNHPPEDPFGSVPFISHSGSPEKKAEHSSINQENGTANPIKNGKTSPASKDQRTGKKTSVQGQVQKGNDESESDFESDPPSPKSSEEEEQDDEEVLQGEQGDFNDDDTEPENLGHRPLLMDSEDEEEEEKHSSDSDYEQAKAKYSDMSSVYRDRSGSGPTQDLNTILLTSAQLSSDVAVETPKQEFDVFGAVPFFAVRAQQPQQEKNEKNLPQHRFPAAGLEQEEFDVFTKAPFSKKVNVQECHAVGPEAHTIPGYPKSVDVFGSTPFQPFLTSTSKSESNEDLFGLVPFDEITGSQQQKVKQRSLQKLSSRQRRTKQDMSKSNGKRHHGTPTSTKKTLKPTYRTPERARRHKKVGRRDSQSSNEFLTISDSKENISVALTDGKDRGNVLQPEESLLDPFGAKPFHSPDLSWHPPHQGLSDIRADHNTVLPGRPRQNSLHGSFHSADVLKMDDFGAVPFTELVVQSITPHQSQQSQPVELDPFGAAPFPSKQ

Sequence of Serine/threonine-protein kinase 38 (Homo sapiens) (Q15208 2-465 limits assumed): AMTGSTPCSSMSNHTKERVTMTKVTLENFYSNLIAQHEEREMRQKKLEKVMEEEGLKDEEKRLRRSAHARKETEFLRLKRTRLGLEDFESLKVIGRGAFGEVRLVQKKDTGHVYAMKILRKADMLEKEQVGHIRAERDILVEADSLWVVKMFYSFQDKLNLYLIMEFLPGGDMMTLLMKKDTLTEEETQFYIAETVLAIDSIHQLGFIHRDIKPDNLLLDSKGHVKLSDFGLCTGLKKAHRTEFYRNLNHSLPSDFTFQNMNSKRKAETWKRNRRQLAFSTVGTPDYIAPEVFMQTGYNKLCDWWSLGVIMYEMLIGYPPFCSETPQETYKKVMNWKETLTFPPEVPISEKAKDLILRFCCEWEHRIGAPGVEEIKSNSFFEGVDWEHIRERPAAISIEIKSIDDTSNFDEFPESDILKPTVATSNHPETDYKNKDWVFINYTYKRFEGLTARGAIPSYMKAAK
Sequence of TRAF2 and NCK-interacting protein kinase (Homo sapiens) (Q9UKE5 whole entry, looked up): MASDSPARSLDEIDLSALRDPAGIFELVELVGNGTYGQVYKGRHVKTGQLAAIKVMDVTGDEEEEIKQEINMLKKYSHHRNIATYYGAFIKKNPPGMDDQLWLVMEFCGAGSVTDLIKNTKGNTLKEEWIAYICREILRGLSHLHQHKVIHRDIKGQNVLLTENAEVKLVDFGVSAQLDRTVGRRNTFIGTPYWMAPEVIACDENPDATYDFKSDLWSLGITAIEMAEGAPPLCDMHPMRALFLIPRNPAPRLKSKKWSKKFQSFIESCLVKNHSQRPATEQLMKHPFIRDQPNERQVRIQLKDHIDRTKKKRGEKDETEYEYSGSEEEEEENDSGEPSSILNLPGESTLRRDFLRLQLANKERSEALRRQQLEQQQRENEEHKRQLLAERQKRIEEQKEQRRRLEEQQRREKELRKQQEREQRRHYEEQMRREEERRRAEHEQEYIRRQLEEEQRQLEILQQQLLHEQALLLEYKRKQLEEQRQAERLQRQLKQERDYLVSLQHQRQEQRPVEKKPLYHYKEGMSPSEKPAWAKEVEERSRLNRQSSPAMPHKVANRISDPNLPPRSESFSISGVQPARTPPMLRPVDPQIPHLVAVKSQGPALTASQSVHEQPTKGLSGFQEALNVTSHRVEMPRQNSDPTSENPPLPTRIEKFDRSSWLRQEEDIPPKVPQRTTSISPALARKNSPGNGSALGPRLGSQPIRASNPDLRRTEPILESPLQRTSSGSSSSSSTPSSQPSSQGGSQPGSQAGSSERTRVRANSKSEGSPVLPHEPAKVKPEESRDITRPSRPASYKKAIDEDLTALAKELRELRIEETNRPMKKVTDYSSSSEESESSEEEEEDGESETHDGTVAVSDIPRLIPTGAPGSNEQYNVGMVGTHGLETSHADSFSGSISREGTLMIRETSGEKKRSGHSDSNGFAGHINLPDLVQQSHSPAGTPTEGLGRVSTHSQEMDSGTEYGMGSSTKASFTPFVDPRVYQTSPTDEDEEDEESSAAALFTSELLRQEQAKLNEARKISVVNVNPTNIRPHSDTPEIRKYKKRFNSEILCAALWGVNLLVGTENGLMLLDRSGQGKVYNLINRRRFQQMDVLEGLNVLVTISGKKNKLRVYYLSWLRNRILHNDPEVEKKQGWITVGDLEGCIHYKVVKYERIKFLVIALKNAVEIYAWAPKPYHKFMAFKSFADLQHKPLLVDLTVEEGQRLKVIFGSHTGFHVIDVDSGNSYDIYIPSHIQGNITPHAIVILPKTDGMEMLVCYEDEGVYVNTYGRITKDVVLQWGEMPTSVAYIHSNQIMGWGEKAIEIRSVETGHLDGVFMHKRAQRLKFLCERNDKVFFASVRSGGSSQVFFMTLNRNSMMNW
Sequence of Mitogen-activated protein kinase 3 (P27361 whole entry): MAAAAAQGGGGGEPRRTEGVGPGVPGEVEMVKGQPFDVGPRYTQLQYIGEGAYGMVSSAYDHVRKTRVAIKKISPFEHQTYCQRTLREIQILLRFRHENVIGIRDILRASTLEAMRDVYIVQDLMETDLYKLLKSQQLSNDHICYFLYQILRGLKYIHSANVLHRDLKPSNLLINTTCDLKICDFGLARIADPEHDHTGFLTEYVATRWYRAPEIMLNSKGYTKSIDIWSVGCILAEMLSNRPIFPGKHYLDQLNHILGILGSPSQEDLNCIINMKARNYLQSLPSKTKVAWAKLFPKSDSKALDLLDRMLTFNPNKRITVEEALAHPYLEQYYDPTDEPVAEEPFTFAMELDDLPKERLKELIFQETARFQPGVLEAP
Sequence of Dual specificity mitogen-activated protein kinase kinase 1 (Q02750 whole entry): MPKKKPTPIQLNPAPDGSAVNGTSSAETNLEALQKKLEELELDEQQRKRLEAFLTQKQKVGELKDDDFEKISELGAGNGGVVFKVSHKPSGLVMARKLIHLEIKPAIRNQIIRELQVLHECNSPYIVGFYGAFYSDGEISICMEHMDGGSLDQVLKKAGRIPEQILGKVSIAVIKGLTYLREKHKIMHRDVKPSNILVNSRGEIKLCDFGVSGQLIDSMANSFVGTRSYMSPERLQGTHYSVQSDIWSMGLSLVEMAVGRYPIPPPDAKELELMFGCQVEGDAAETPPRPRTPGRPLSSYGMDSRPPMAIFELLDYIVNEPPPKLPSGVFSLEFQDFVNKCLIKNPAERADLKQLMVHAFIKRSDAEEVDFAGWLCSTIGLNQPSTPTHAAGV
Sequence of Phosphatidylinositol 4-kinase beta (Q9UBF8 2-816 limits assumed): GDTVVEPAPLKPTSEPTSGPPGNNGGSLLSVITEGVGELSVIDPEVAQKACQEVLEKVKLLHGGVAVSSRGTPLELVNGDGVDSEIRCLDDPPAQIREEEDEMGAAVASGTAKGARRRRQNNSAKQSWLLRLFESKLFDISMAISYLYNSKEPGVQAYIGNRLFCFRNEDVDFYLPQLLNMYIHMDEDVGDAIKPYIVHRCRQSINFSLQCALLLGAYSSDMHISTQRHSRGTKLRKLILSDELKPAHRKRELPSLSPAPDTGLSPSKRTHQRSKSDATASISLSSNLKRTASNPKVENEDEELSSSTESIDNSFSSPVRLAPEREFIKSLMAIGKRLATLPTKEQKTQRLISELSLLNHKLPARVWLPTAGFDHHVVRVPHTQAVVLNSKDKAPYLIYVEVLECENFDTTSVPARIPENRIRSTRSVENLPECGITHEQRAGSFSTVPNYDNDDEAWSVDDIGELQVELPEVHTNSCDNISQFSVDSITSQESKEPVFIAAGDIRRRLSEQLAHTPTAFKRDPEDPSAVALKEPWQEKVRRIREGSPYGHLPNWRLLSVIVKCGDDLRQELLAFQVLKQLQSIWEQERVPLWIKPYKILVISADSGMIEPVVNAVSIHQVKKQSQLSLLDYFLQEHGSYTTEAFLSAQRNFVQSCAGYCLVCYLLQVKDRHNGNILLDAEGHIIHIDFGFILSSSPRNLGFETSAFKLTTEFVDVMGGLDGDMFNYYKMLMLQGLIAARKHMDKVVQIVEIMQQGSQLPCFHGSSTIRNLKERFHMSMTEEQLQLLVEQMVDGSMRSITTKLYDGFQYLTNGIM
Sequence of Casein kinase I isoform gamma-2 (Homo sapiens) (P78368 whole entry, looked up, canonical isoform): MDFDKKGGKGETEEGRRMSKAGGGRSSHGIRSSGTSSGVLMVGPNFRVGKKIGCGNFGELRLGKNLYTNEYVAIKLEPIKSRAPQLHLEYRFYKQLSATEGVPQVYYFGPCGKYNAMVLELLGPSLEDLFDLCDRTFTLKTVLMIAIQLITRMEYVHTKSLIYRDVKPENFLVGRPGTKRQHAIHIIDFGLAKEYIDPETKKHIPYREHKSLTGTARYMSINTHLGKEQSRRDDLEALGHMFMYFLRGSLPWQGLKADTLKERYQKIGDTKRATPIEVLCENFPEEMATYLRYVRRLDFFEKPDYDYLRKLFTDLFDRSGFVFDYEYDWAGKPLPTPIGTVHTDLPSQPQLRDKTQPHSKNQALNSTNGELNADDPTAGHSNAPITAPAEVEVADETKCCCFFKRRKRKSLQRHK

% of control [1]: 100%
SMILES: CCN(CC)CCCCNc1ncc2cc(-c3cc(OC)cc(OC)c3)c(NC(=O)NC(C)(C)C)nc2n1

SMILES: CN(C)C/C=C/C(=O)Nc1ccc(C(=O)N2CCCC(Nc3ncc(Cl)c(-c4c[nH]c5ccccc45)n3)C2)cc1 (centres undefined)
% of control [2]: 91%

SMILES: O[C@H]1CC[C@H](Nc2ncc3nc(Nc4c(F)cc(F)cc4F)n([C@H]4CCOC4)c3n2)CC1
% of control [3]: 60%

SMILES: N#Cc1cccc(-c2c[nH]c3ncnc(N4CCOCC4)c23)c1
% of inhibition [4]: -27%
% of control [5]: 89%
% of control [6]: 97%

SMILES: C=CC(=O)Nc1cc(-n2c(=O)ccc3cnc4ccc(-c5ccc(NS(C)(=O)=O)cc5)cc4c32)ccc1C
% of control ([7]; at 1 µM): 100%
% of control ([7]; at 10 µM): 100%

SMILES: COCC(=O)NC/C=C/c1ccc2ncnc(Nc3ccc(Oc4ccc(C)nc4)c(C)c3)c2c1 [CP-724714]
% of control [8]: 100%

% of inhibition [9]: -1%
SMILES: Cc1ccc(-c2ccc3c(ccc4sc5c(c43)NC[C@@H](C)NC5=O)n2)cn1

SMILES: C=CC(=O)Nc1ccc(C(=O)Nc2[nH]nc3c2CN(C(=O)N[C@H](CN(C)C)c2ccccc2)C3(C)C)cc1
% of engagement [10]: 5.3%

% of inhibition [11]: -3.9%
% of inhibition [12]: 0.2%
SMILES: CC[C@@H]1[C@H](F)C(=O)N[C@@H]1COc1nccc2cc(C(N)=O)c(OC)cc12 [ZIMLOVISERTIB]

SMILES: COc1cc(N(C)c2ccnc3ccc(C(F)(F)F)cc23)cc(OC)c1OC
% binding [13]: 99%
